Measured values as given in ChEMBL document CHEMBL1132462, “Molecular modeling studies on G-quadruplex complexes of telomerase inhibitors: structure-activity relationships” (J Med Chem, 1999).

These molecules were tested against Telomerase reverse transcriptase (Homo sapiens, UniProt O14746) (assay: Inhibitory activity against Telomerase evaluated by TRAP Assay studies.).
Chain of Telomerase reverse transcriptase (O14746 whole entry): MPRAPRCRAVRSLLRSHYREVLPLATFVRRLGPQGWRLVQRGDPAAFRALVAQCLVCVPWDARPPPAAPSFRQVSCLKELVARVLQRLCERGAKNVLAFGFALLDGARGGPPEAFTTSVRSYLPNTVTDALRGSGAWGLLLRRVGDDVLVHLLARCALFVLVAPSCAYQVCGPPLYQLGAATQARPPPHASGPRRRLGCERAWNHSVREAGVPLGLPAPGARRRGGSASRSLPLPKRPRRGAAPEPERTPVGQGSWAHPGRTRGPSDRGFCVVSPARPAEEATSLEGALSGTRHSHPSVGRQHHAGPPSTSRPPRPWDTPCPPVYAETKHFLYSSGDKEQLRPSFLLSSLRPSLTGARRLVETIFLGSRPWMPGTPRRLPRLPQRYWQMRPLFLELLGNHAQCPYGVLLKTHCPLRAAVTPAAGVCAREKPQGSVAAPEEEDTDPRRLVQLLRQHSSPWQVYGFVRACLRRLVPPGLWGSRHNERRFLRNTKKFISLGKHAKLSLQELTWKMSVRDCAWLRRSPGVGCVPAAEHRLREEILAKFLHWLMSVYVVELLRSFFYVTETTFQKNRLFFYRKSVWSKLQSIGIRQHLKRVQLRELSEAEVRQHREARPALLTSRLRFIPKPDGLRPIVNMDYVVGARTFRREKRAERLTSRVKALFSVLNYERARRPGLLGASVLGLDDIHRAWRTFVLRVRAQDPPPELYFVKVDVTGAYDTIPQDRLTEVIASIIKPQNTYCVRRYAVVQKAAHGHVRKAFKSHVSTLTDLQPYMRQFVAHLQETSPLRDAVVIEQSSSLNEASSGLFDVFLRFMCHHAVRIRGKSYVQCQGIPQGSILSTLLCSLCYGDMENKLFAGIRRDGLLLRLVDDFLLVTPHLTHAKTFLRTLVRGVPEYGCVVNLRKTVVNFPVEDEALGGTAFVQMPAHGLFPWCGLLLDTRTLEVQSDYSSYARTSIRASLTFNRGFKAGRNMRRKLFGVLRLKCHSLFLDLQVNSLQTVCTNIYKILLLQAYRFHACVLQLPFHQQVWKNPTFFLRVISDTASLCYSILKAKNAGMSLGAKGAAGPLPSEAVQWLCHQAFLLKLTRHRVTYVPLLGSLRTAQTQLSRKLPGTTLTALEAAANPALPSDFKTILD

IC50 | Structure (SMILES)
13 µM | O=C(CCN1CCCCCC1)Nc1ccc2c(c1)C(=O)c1ccc(NC(=O)CCN3CCCCCC3)cc1C2=O
> 50 µM | O=C(CCN1CCCCCCC1)Nc1ccc2c(c1)C(=O)c1ccc(NC(=O)CCN3CCCCCCC3)cc1C2=O
> 50 µM | CC1(C)CC2CC(C)(CN2CCC(=O)Nc2ccc3c(c2)C(=O)c2ccc(NC(=O)CCN4CC5(C)CC4CC(C)(C)C5)cc2C3=O)C1
